Assay results taken from patent publication US20230322747A1, “OXADIAZOLE HDAC6 INHIBITORS AND USES THEREOF” (Eikonizo Therapeutics, Inc., priority 2022, published 2023).

The molecules below were run against Human HDAC6 (Homo sapiens (Human), UniProt Q9UBN7) (assay: HDAC6 enzymatic activity assay (Caliper endpoint or fluorogenic format)). Conditions: in vitro enzymatic.
Human HDAC6, sequence (Q9UBN7 whole entry): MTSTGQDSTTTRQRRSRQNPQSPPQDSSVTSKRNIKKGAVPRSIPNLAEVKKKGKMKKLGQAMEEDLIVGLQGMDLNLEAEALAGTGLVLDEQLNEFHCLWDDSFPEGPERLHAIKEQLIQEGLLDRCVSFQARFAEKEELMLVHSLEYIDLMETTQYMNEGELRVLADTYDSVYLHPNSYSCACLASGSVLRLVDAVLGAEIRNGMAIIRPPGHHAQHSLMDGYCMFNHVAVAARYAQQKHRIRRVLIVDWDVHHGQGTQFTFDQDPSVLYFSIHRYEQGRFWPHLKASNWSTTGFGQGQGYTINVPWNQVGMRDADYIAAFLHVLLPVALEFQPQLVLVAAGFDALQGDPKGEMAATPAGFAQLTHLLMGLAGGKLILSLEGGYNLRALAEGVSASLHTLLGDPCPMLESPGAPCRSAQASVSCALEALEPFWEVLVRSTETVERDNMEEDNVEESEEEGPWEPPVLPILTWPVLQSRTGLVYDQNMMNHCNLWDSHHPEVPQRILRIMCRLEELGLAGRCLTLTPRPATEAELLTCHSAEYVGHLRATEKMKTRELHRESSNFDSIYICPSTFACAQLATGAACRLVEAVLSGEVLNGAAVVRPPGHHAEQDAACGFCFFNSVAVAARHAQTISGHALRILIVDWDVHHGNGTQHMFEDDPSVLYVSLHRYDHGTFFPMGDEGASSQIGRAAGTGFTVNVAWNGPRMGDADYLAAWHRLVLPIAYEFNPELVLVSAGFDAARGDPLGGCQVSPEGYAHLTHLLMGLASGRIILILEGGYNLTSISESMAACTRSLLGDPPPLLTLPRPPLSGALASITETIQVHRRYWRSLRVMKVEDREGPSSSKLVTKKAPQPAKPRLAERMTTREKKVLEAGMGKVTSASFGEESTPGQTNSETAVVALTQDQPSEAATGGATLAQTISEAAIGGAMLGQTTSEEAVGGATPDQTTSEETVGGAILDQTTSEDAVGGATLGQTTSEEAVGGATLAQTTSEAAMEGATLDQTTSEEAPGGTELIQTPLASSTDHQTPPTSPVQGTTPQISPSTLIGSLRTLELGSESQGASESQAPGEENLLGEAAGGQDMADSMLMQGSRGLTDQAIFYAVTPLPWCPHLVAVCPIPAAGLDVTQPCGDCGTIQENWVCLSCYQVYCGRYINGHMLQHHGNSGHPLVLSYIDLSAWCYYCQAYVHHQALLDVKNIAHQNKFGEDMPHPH
Assay type: biochemical
Work on `CC(Oc1ccc(F)cc1)c1ccc(-c2nnc(C(F)F)o2)cn1` (stereo not drawn) [AAA, 2-(Difluoromethyl)-5-(6-(1-(4-fluorophenoxy)ethyl)pyridin-3-yl)-1,3,4-oxadiazole] yielded an IC50 of 1 to 10 µM.
`FC(F)c1nnc(-c2ccc(C(F)(F)Oc3cccc4ccccc34)nc2)o1` [Compound 14, 2-(6-(difluoro(naphthalen-1-yloxy)methyl)pyridin-3-yl)-5-(difluoromethyl)-1,3,4-oxadiazole] gave an IC50 of 0.1 to 1 µM.
In the case of `Fc1ccc(OCc2ncc(-c3nnc(C(F)F)o3)cn2)cc1F` [Compound 22], the IC50 is reported as 0.001 to 0.1 µM.
Molecule `FC(F)c1nnc(-c2ccc(COCC3CC4CCC(C3)N4)nc2)o1` (stereo not drawn) [Compound 23] has an IC50 of 0.1 to 1 µM.
Molecule `CN1C[C@@]2(COCc3ccc(-c4nnc(C(F)F)o4)cn3)C[C@@H]1CO2` [Compound 25] has an IC50 of 0.1 to 1 µM.
Molecule `FC(F)c1nnc(-c2ccc(COc3cccc4ccncc34)nc2)o1` [Compound 33] has an IC50 of 0.001 to 0.1 µM.
`Cc1nc2ccc(OCc3ccc(-c4nnc(C(F)F)o4)cn3)cc2o1` [Compound 38] showed an IC50 of 0.001 to 0.1 µM.
`Cn1ccc(OCc2ccc(-c3nnc(C(F)F)o3)cn2)n1` [Compound 66] was tested, and the IC50 was 0.001 to 0.1 µM.
`FC(F)c1nnc(-c2ccc(COc3ncccn3)nc2)o1` [Compound 78] showed an IC50 of 0.1 to 1 µM.
Molecule `Cc1ncc(F)c(OCc2ccc(-c3nnc(C(F)F)o3)cn2)n1` [Compound 81] has an IC50 of 0.001 to 0.1 µM.
In the case of `FC(F)c1nnc(-c2ccc(COc3nccn4ccnc34)nc2)o1` [Compound 86, 2-(difluoromethyl)-5-(6-((imidazo[1,2-a]pyrazin-8-yloxy)methyl)pyridin-3-yl)-1,3,4-oxadiazole], the IC50 is reported as 0.001 to 0.1 µM.
In the case of `FC(F)c1nnc(-c2ccc(COc3nnc4ccccn34)nc2)o1` [Compound 87], the IC50 is reported as 0.001 to 0.1 µM.
Molecule `Cc1ccc2nnc(OCc3ccc(-c4nnc(C(F)F)o4)cn3)n2c1` [Compound 89] has an IC50 of 0.001 to 0.1 µM.
`FC(F)c1nnc(-c2ccc(COc3ccc(C(F)(F)F)cn3)nc2)o1` [Compound 94] gave an IC50 of 0.1 to 1 µM.
`Cc1ccc2ncnc(OCc3ccc(-c4nnc(C(F)F)o4)cn3)c2c1` [Compound 95] gave an IC50 of 0.001 to 0.1 µM.
Molecule `Cc1cccc2c(OCc3ccc(-c4nnc(C(F)F)o4)cn3)ncnc12` [Compound 96] has an IC50 of 0.001 to 0.1 µM.
Work on `FC(F)c1nnc(-c2ccc(COc3ncnc4cc(Cl)ccc34)nc2)o1` [Compound 98] yielded an IC50 of 0.001 to 0.1 µM.
For `FC(F)c1nnc(-c2ccc(COc3ncco3)nc2)o1` [Compound 100], the IC50 was 0.1 to 1 µM.
Molecule `FC(F)c1nnc(-c2ccc(COc3cccnn3)nc2)o1` [Compound 103] has an IC50 of 0.1 to 1 µM.
`FC(F)c1nnc(-c2ccc(COc3ccncn3)nc2)o1` [Compound 104] showed an IC50 of 0.001 to 0.1 µM.
Work on `Cn1ccnc1OCc1ccc(-c2nnc(C(F)F)o2)cn1` [Compound 105] yielded an IC50 of 0.1 to 1 µM.
`Fc1cncnc1OCc1ccc(-c2nnc(C(F)F)o2)cn1` [Compound 107] showed an IC50 of 0.001 to 0.1 µM.
For `FC(F)c1nnc(-c2ccc(COC3CC4CCC(C3)O4)nc2)o1` (stereo not drawn) [Compound 109], the IC50 was 0.1 to 1 µM.
In the case of `FC(F)c1nnc(-c2ccc(CO[C@@H]3C[C@H]4CC[C@@H](C3)O4)nc2)o1` [Compound 110], the IC50 is reported as 0.1 to 1 µM.
With `CN1[C@@H]2CC[C@H]1C[C@H](OCc1ccc(-c3nnc(C(F)F)o3)cn1)C2` [Compound 113] the IC50 was 1 to 10 µM.
Molecule `N#Cc1ccc(COCc2ccc(-c3nnc(C(F)F)o3)cn2)s1` [Compound 120] has an IC50 of 0.1 to 1 µM.
In the case of `CN1CCc2cc(OCc3ccc(-c4nnc(C(F)F)o4)cn3)ccc2C1` [Compound 121], the IC50 is reported as 0.1 to 1 µM.
`Fc1cc(-c2nnc(C(F)F)o2)cnc1COc1cccn2ccnc12` [Compound 123] gave an IC50 of 0.001 to 0.1 µM.
`Fc1cc(-c2nnc(C(F)F)o2)cnc1COc1ccc2cccnc2c1` [Compound 124] showed an IC50 of 0.001 to 0.1 µM.
`Fc1cc(-c2nnc(C(F)F)o2)cnc1COc1cccc2cnccc12` [Compound 125] showed an IC50 of 0.001 to 0.1 µM.
Molecule `Fc1cc(-c2nnc(C(F)F)o2)cnc1COc1cccc2ccncc12` [Compound 126] has an IC50 of 0.001 to 0.1 µM.
With `N#Cc1ccccc1OCc1ncc(-c2nnc(C(F)F)o2)cc1F` [Compound 127] the IC50 was 0.001 to 0.1 µM.
With `C#Cc1cccc(OCc2ncc(-c3nnc(C(F)F)o3)cc2F)c1` [Compound 128] the IC50 was 0.001 to 0.1 µM.
With `Fc1ccc(OCc2ncc(-c3nnc(C(F)F)o3)cc2F)cc1F` [Compound 129] the IC50 was 0.001 to 0.1 µM.
`Fc1cc(-c2nnc(C(F)F)o2)cnc1COc1cccc2cccnc12` [Compound 130] showed an IC50 of 0.001 to 0.1 µM.
In the case of `Fc1ccc(OCc2ncc(-c3nnc(C(F)F)o3)cc2F)c(F)c1` [Compound 131], the IC50 is reported as 0.001 to 0.1 µM.
`Fc1cc(-c2nnc(C(F)F)o2)cnc1COc1cccc2ncccc12` [Compound 132] was tested, and the IC50 was 0.001 to 0.1 µM.
Work on `Cc1noc2cccc(OCc3ncc(-c4nnc(C(F)F)o4)cn3)c12` [Compound 134] yielded an IC50 of 0.001 to 0.1 µM.
`Cc1noc2cc(OCc3ncc(-c4nnc(C(F)F)o4)cn3)ccc12` [Compound 136] showed an IC50 of 0.001 to 0.1 µM.
`Cc1noc2cc(OCc3ncc(-c4nnc(C(F)F)o4)cc3F)ccc12` [Compound 137, 6-((5-(5-(difluoromethyl)-1,3,4-oxadiazol-2-yl)-3-fluoropyridin-2-yl)methoxy)-3-methylbenzo[d]isoxazole] was tested, and the IC50 was 0.001 to 0.1 µM.
In the case of `Cn1ncc2cc(OCc3ncc(-c4nnc(C(F)F)o4)cn3)ccc21` [Compound 138], the IC50 is reported as 0.001 to 0.1 µM.
Work on `Cn1ncc2cc(OCc3ncc(-c4nnc(C(F)F)o4)cc3F)ccc21` [Compound 139, 2-(difluoromethyl)-5-(5-fluoro-6-(((1-methyl-1H-indazol-5-yl)oxy)methyl)pyridin-3-yl)-1,3,4-oxadiazole] yielded an IC50 of 0.001 to 0.1 µM.
`Cc1nc2cc(OCc3ncc(-c4nnc(C(F)F)o4)cn3)ccc2o1` [Compound 140] gave an IC50 of 0.001 to 0.1 µM.
`Cc1nc2cc(OCc3ncc(-c4nnc(C(F)F)o4)cc3F)ccc2o1` [Compound 141] was tested, and the IC50 was 0.001 to 0.1 µM.
Molecule `FC(F)c1nnc(-c2cnc(COc3ccc4ocnc4c3)nc2)o1` [Compound 142] has an IC50 of 0.001 to 0.1 µM.
With `FC(F)c1nnc(-c2cnc(COc3cccc4ocnc34)nc2)o1` [Compound 144] the IC50 was 0.001 to 0.1 µM.
Molecule `Cn1cnc2cc(OCc3ncc(-c4nnc(C(F)F)o4)cn3)ccc21` [Compound 146] has an IC50 of 0.001 to 0.1 µM.
Work on `Cn1cnc2cc(OCc3ncc(-c4nnc(C(F)F)o4)cc3F)ccc21` [Compound 147] yielded an IC50 of 0.001 to 0.1 µM.
With `FC(F)c1nnc(-c2cnc(COc3ccc4nccnc4c3)nc2)o1` [Compound 150] the IC50 was 0.001 to 0.1 µM.
For `Fc1cc(-c2nnc(C(F)F)o2)cnc1COc1ccc2nccnc2c1` [Compound 151], the IC50 was 0.001 to 0.1 µM.
`FC(F)c1nnc(-c2cnc(COc3ccc4ncccc4c3)nc2)o1` [Compound 152] showed an IC50 of 0.001 to 0.1 µM.
Molecule `Fc1cc(-c2nnc(C(F)F)o2)cnc1COc1ccc2ncccc2c1` [Compound 153] has an IC50 of 0.001 to 0.1 µM.
In the case of `FC(F)c1nnc(-c2cnc(COc3ccc4cnccc4c3)nc2)o1` [Compound 154], the IC50 is reported as 0.001 to 0.1 µM.
Molecule `Fc1cc(-c2nnc(C(F)F)o2)cnc1COc1ccc2cnccc2c1` [Compound 155] has an IC50 of 0.001 to 0.1 µM.
For `FC(F)c1nnc(-c2cnc(COc3ccc4ccncc4c3)nc2)o1` [Compound 156], the IC50 was 0.001 to 0.1 µM.
With `Fc1cc(-c2nnc(C(F)F)o2)cnc1COc1ccc2ccncc2c1` [Compound 157] the IC50 was 0.001 to 0.1 µM.
`FC(F)c1nnc(-c2cnc(COc3cccc4nccnc34)nc2)o1` [Compound 158] showed an IC50 of 0.001 to 0.1 µM.
`Fc1cc(-c2nnc(C(F)F)o2)cnc1COc1cccc2nccnc12` [Compound 159] showed an IC50 of 0.001 to 0.1 µM.
Work on `FC(F)c1nnc(-c2cnc(COc3cccc4cncnc34)nc2)o1` [Compound 160] yielded an IC50 of 0.001 to 0.1 µM.
Work on `Fc1cc(-c2nnc(C(F)F)o2)cnc1COc1cccc2cncnc12` [Compound 161] yielded an IC50 of 0.001 to 0.1 µM.
`FC(F)c1nnc(-c2cnc(COc3cccnc3)nc2)o1` [Compound 162] showed an IC50 of 0.001 to 0.1 µM.
With `N#Cc1ccc(OCc2ncc(-c3nnc(C(F)F)o3)cn2)cc1` [Compound 164] the IC50 was 0.001 to 0.1 µM.
In the case of `N#Cc1ccc(OCc2ncc(-c3nnc(C(F)F)o3)cc2F)cc1` [Compound 165], the IC50 is reported as 0.001 to 0.1 µM.
`Fc1ccc(OCc2ncc(-c3nnc(C(F)F)o3)cn2)cc1` [Compound 166, 2-(difluoromethyl)-5-(2-((4-fluorophenoxy)methyl)pyrimidin-5-yl)-1,3,4-oxadiazole] gave an IC50 of 0.001 to 0.1 µM.
In the case of `N#Cc1cccc(OCc2ncc(-c3nnc(C(F)F)o3)cc2F)c1` [Compound 167], the IC50 is reported as 0.001 to 0.1 µM.
Molecule `C#Cc1ccccc1OCc1ncc(-c2nnc(C(F)F)o2)cn1` [Compound 168] has an IC50 of 0.001 to 0.1 µM.
`FC(F)c1nnc(-c2ccc(COc3ccc4c(c3)CCNC4)nc2)o1` [Compound 170] gave an IC50 of 0.1 to 1 µM.
With `Cn1cc2cc(OCc3ncc(-c4nnc(C(F)F)o4)cc3F)ccc2n1` [Compound 178, 2-(Difluoromethyl)-5-(5-fluoro-6-(((2-methyl-2H-indazol-5-yl)oxy)methyl)pyridin-3-yl)-1,3,4-oxadiazole] the IC50 was 0.001 to 0.1 µM.
For `Fc1cc(-c2nnc(C(F)F)o2)cnc1COc1cccc2ncncc12` [Compound 179, 2-(Difluoromethyl)-5-(5-fluoro-6-((quinazolin-5-yloxy)methyl)pyridin-3-yl)-1,3,4-oxadiazole], the IC50 was 0.001 to 0.1 µM.
In the case of `Fc1cc(-c2nnc(C(F)F)o2)cnc1COc1ccc2cncnc2c1` [Compound 180, 2-(difluoromethyl)-5-(5-fluoro-6-((quinazolin-7-yloxy)methyl)pyridin-3-yl)-1,3,4-oxadiazole], the IC50 is reported as 0.001 to 0.1 µM.
`Fc1cc(-c2nnc(C(F)F)o2)cnc1COc1ccc2ncncc2c1` [Compound 181, 2-(Difluoromethyl)-5-(5-fluoro-6-((quinazolin-6-yloxy)methyl)pyridin-3-yl)-1,3,4-oxadiazole] gave an IC50 of 0.001 to 0.1 µM.
`Fc1cc(-c2nnc(C(F)F)o2)cnc1COc1ccc2ccccc2c1` [Compound 182, 2-(Difluoromethyl)-5-(5-fluoro-6-((naphthalen-2-yloxy)methyl)pyridin-3-yl)-1,3,4-oxadiazole] showed an IC50 of 0.001 to 0.1 µM.
With `FC(F)c1nnc(-c2ccc(COc3cnc4ccnn4c3)nc2)o1` [Compound 183, 2-(Difluoromethyl)-5-(6-((pyrazolo[1,5-a]pyrimidin-6-yloxy)methyl)pyridin-3-yl)-1,3,4-oxadiazole] the IC50 was 0.001 to 0.1 µM.
For `FC(F)c1nnc(-c2ccc(COc3ccc(-c4ccccc4)cc3)nc2)o1` [Compound 185, 2-(6-(([1,1′-Biphenyl]-4-yloxy)methyl)pyridin-3-yl)-5-(difluoromethyl)-1,3,4-oxadiazole], the IC50 was 0.001 to 0.1 µM.
For `FC(F)c1nnc(-c2ccc(COc3ccnc(-c4ccccc4)c3)nc2)o1` [Compound 186, 2-(Difluoromethyl)-5-(6-(((2-phenylpyridin-4-yl)oxy)methyl)pyridin-3-yl)-1,3,4-oxadiazole], the IC50 was 0.001 to 0.1 µM.
